Test system: gastruloid cardiac portion
Assay: Calcium imaging of the gastruloid cardiac portion
Format: cell-based, mouse
Conditions: 168 h gastruloids, 1 μM, light sheet imaging with Cal-520
Experimental: To image calcium fluxes, gastruloids were incubated for 1 h with 8 μM Cal-520 (AAT Bioquest) at 37° C., 5% CO2. Gastruloids were then transferred to fresh medium before imaging. Imaging was performed with a Light sheet Z1 microscope (Zeiss) equipped with an environmental chamber to maintain gastruloids at 37° C. and 5% CO2. For imaging, gastruloids were embedded in 1% low melt agarose and the chamber was filled with culture medium. Nifidepine (Sigma Aldrich, 10 μM) and Isoproterenol (Isoprenaline hydrochloride, Sigma 15627, 1 μM) were added with a syringe directly to the imaging chamber during acquisition. The analysis of calcium spikes was performed with the Fiji Stacks-plot Z-Axis profile plugin. The baseline intensity was normalized to the minimum value over 10 sec.

**Q.** `CC(C)NCC(O)c1ccc(O)c(O)c1` (stereo not shown) [isoproterenol, Isoproterenol] was tested. Which calcium spiking frequency did it give?
**A.** increase in spiking frequency
